Patent US5597798A, “Taxol and epidermal growth factor used to enhance treatment of ovarian cancer” (The Regents of the University of California, priority 1994, dated 1997)
Read-outs that look alike come from different tables or passages of the source.

How the values were obtained:
[1] = tested on: A549 non-small cell lung cancer cells; experiment: Colony forming assay, effect of EGF on cisplatin sensitivity; type: cell-based, human
Description: (§1) The following cell lines were used in these studies: 2008 human ovarian carcinoma (Disaia, et al., Am. J. Obstet. Gynecol. 114:978 (1972)), COLO 316 human ovarian carcinoma (Woods et al., Cancer Res. 39:4449 (1979)), a DDP resistant variant 2008/C13*, derived from the parent 2008 cell line (Andrews, et al., Cancer Res. 45:6250 (1985)), A549 non-small cell lung cancer (Lieber et al., Int. J. Cancer 17:62 (1976)), NCI-H520 squamous cell lung cancer (Brower et al., Cancer Res. 46: 798 (1986)), NCI-H596 adenosquamous lung cancer (Banks-Schlegel et al., Cancer Res. 45: 1187 (1985)), UMC 31 small cell lung cancer cells (Graziano et al., Genes, Chromosomes and Cancer 3: 283 (1991)), GLC4 small cell lung cancer cells (Zijlstra et al., Cancer Res. 47: 1780 (1987)), UMCC10b head and neck cancer cells (Krause et al., Arch. Otolayngol. 107: 703 (1981)), 5637 bladder cancer cells (Fogh et al., J. Natl. Cancer Inst. 58: 209 (1977)), MIA PaCa-2 pancreatic cancer cells (Yunis et al., Int. J. Cancer 19:128 (1977)), Du 145 prostate cancer (Mickey Cancer Res. 37: 4049 (1977)) , COLO 205 colon cancer (Semple et al., Cancer Res. 38:1345 (1978)), KB-3-1 cervix cancer (Akiyama et al., Somat. Cell Mol. Genet. 11: 117 (1985)) , MCF-7 breast cancer (Soule et al., J. Natl. Cancer Inst. 51:1409 (1973)), A431 epidermoid carcinoma of the skin (Giard et al., J. Natl. Cancer Inst. 51: 1417 (1973)) and T-289 melanoma cells (Taetle et al., Cancer (Philadelphia) 60: 1836 (1987)). The human cell line 2008 was established from a patient with a serous cystadenocarcinoma of the ovary. The 8-fold DDP resistant cell line 2008/C13* was generated by 13 monthly selections with […], followed by chronic exposure to stepwise increasing concentrations of DDP, from 0.25 to 5 uM. A resistant subline, designated 2008/C13*5, was obtained by monthly selections with 1 μM DDP. The cells were grown on tissue culture dishes in a humidified incubator at 37° C. and 5% CO2 atmosphere. Cells were grown in either of the following types of media: RPMI 1640, RPMI 1640 plus HITES buffer, DMEM low glucose, or DMEM high glucose supplemented with 5% to 10% heat inactivated fetal calf serum and 2 mM glutamine.
(§2) Colony forming assays were used to assess the effect of each drug on the sensitivity of various tumor cell lines to cytotoxic agents (Andrews, et al., Chem.-Biol. Interact 65:51-58 (1988)). For assays performed on plastic tissue culture dishes, five ml of suspended cells were plated on 60-mm polystyrene tissue culture dishes (Corning Glass Works, Corning, N.Y.). Cells were allowed to attach overnight, then 10 μl of stock drug solution was added to triplicate plates at each drug concentration. Control plates received diluent alone. After 1 h, the drug-containing medium was aspirated and replaced with drug free medium. Plates were incubated in humidified 5% CO2 air, and after 14 days plates were fixed with methanol and stained with Giemsa. Colonies of over 60 cells were counted macroscopically.
(§3) The drug containing media was removed and cells were resuspended in 5 ml of complete medium containing 0.36% low melting-temperature agarose at 37° C. The cell suspension was mixed well and then aliquotted at 1 ml per dish in triplicate onto prepared 35 mm dishes containing a basement layer of solidified 1% agarose. The cell-containing layer was allowed to solidify at 4° C. for 10 minutes, and the dishes were incubated at 37° C. in humidified 5% CO2. Colonies greater than 125 um were counted after 5 days.
(§4) ^a Dose response curves were determined by colony forming assay. Cell

[2] = tested on: COLO 205 colon cancer cells; experiment: as above; type: cell-based, human
Description: as §1, §2, §3, §4

[3] = tested on: Du 145 prostate cancer cells; experiment: as above; type: cell-based, human
Description: as §1, §2, §3, §4

[4] = tested on: GLC 4 small cell lung cancer cells; experiment: as above; type: cell-based, human
Description: as §1, §2, §3, §4

[5] = tested on: KB-3-1 cervix cancer cells; experiment: as above; type: cell-based, human
Description: as §1, §2, §3, §4

[6] = tested on: MCF-7 breast cancer cells; experiment: as above; type: cell-based, human
Description: as §1, §2, §3, §4

[7] = tested on: MIA PaCa-2 pancreatic cancer cells; experiment: as above; type: cell-based, human
Description: as §1, §2, §3, §4

[8] = tested on: T-289 malignant melanoma cells; experiment: as above; type: cell-based, human
Description: as §1, §2, §3, §4

[9] = tested on: UMC 31 small cell lung cancer cells; experiment: as above; type: cell-based, human
Description: as §1, §2, §3, §4

[10] = tested on: UMSCC 10b head and neck cancer cells; experiment: as above; type: cell-based, human
Description: as §1, §2, §3, §4

2008 cells = experiment: Colony forming (colonogenic) assay, effect of TPA, phorbol and staurosporine on DDP sensitivity
[11] = ratio of IC50 in control and EGF-treated cells
[12] = read-out: IC50 in absence of EGF, cisplatin 1 h, no EGF
[13] = read-out: IC50 in presence of EGF, 10 nM EGF and cisplatin concurrently for 1 h

Compound: N.N.[Cl][Pt][Cl] [cisplatin]
- Dose modifying factor [1, 11]: 2.0
- IC50 ([1]; read-out: IC50 in absence and presence of EGF (single figure printed), 10 nM EGF and cisplatin concurrently for 1 h): 14.5 µM
- Dose modifying factor [2, 11]: 1.7
- IC50 [2, 12]: 27.6 µM
- IC50 [2, 13]: 16.5 µM
- Dose modifying factor [3, 11]: 1.5
- IC50 [3, 12]: 8.52 µM
- IC50 [3, 13]: 5.52 µM
- Dose modifying factor [4, 11]: 0.7
- IC50 [4, 12]: 12.2 µM
- IC50 [4, 13]: 18.2 µM
- Dose modifying factor [5, 11]: 2.0
- IC50 [5, 12]: 9.71 µM
- IC50 [5, 13]: 4.79 µM
- Dose modifying factor [6, 11]: 1.0
- IC50 [6, 12]: 3.82 µM
- IC50 [6, 13]: 3.8 µM
- Dose modifying factor [7, 11]: 1.4
- IC50 [7, 12]: 7.65 µM
- IC50 [7, 13]: 5.53 µM
- Dose modifying factor [8, 11]: 0.8
- IC50 [8, 12]: 2.02 µM
- IC50 [8, 13]: 2.49 µM
- Dose modifying factor [9, 11]: 0.8
- IC50 [9, 12]: 5.4 µM
- IC50 [9, 13]: 6.86 µM
- Dose modifying factor [10, 11]: 3.8
- IC50 [10, 12]: 6.76 µM
- IC50 [10, 13]: 1.76 µM
- colony survival (2008 cells; 2 μM DDP in the absence of TPA (FIG. 6)): approximately 80%
- survival, % of control (2008 cells; DDP (2 μM) alone): 85±5%
